In patent publication US20030190364A1, “Biological affinity based delivery systems” (priority 2002, published 2003):
Like-named read-outs stand apart in the source and are kept apart here. Where no end group is shown, it is not given here. [ ]: non-standard residue; d: D form. The star is where a group is joined. FITC = O=C1OC2(c3ccc(O)cc3Oc3cc(O)ccc32)c2ccc(NC(=S)*)cc21; Dansyl = CN(C)c1cccc2c(S(=O)(=O)*)cccc12; βAla = NCCC(=O)O

What was measured:
[1] = Relative affinity to heparin of synthesized peptides (Table 2); type: binding; conditions: corresponds to the bold-faced amino acids of the sequence
[2] = Heparin affinity column, NaCl concentration required for elution; type: binding; conditions: 50 mM sodium phosphate pH 7.5, gradient 0 to 2 M NaCl over 20 column volumes
Experimental: For purposes of the present invention, conditions for determining the affinity of the PB polypeptides (and/or the therapeutic agent) for heparin are as follows: The polypeptide is solubilized in 50 mM sodium phosphate buffer, pH 7.5 to a final concentration of 0.5 mg/ml. 1 mg of the polypeptide is loaded onto an Amersham Biosciences HiPrep 16/10 Heparin FF column (or suitable equivalent) at a flow rate of 5 ml/min at 25° C. After loading the polypeptide, a salt gradient is introduced to the column by increasing the sodium chloride content of the buffer from 0 to 2 M NaCl over 20 column volumes. The recorded NaCl concentration required for elution is determined by correlating the maximum absorbance value at 280 and/or 215 nm for each spectrum to the value of the gradient at that time point.
FIG. 4 is a chart depicting the relative heparin affinity of various heparin-binding peptides. Each peptide was solubilized in 50 mM sodium phosphate buffer, pH 7.5 to a final concentration of 0.5 mg/ml. Then, 1 mg of each peptide was loaded onto an Amersham Biosciences HiPrep 16/10 Heparin FF column at a flow rate of 5 ml/min. After loading the peptide, a salt gradient was introduced to the column by increasing the sodium chloride content of the buffer from 0 to 2 M NaCl over 20 column volumes. The recorded NaCl concentration required for elution was determined by correlating the maximum absorbance value at 280 and/or 215 nm for each spectrum to the value of the gradient at that time point.

[3] = cited from earlier work
[4] = Dissociation constant (KD) of peptides from heparin, literature values; type: binding; conditions: PBD3 versus PBD2
[5] = references [1], [2], read-out: Affinity to Heparin (KD)

| Substance | NaCl Elution Conc. [2] | further results |
| --- | --- | --- |
| AAFAKLAARLYRKAGC [HBD-low] |  | Relative Affinity to Heparin [1]: 14.3% |
| AKLNCRLYRKANKSSKL [PBD8] | 481.2 mM |  |
| Dansyl-GYGRKKRRQRRR [Dansyl-TAT] | 727.6 mM |  |
| FITC-A(β)AAFAKLAARLYRKAGC ({FITC}-[βAla]AAFAKLAARLYRKAGC) [PBD2] | 354.8 mM | Kd [3, 5]: 370 nM |
| FITC-A(β)GGGGYGRKKRRQRRR ({FITC}-[βAla]GGGGYGRKKRRQRRR) [TAT, reference compound] |  | Relative Affinity to Heparin [1]: 170%; Kd ([3]; low molecular weight heparin and heparin to which only one molecule of TAT is bound (Rusnati, 1999), read-out: KD, dissociation constant for TAT from heparin): ~700 nM; Kd [3, 5]: 30 nM |
| FITC-A(β)KAFAALAARLYRKAGC ({FITC}-[βAla]KAFAALAARLYRKAGC) [PBD3, PBD3 control is the same peptide tested without heparin] | 313.0 mM | dissociation constant relative to that of PBD2 [4]: 1.8 times; Kd [3, 5]: 660 nM |
| FITC-A(β)KAFAKLAARLYRKAGC ({FITC}-[βAla]KAFAKLAARLYRKAGC) [FITC-PBD1] | 438.8 mM |  |
| FITC-A(β)YGRKKRRQRRR (AYGRKKRRQRRR; N-terminal FITC-beta-alanine) [FITC-TAT] | 703.6 mM |  |
| KAFAKLAARLYRKAGC [HBD-high] |  | Relative Affinity to Heparin [1]: 100% |
| KAFAKLAARLYRKAGC [PBD1-A] | 325.0 mM |  |
| WKA(β)FAKLNCRLYRKA (WK[βAla]FAKLNCRLYRKA) [PBD7] | 422.6 mM |  |
| dansyl-GKAFAKLAARLYRKAGC (Dansyl-GKAFAKLAARLYRKAGC) [PBD1] | 685.9 mM |  |
